Earlier results in US20240408573A1, “ACIDIC GAS ADSORBENT AND ACIDIC GAS ADSORPTION DEVICE” (NITTO DENKO CORPORATION, priority 2021, published 2024).

Legend:
[1] = safety index in terms of handling
[2] = safety index in terms of handling; remark: listed apart in the source
[3] = safety index in terms of handling; remark: listed apart in the source

Q: With `NCCNCCNCCN` [TETA, triethylenetetramine] as the molecule, how does the “Skin irritation test (rabbit)” value (rabbits) read?
A: Strong irritant

Q: And the “Fire Service Act” value [1]?
A: Hazardous material

Q: What about the “Poisonous and Deleterious Substances Control Act” value [2] of the same molecule?
A: Deleterious

Q: And the “Mutagenicity test (Ames test)” value [3]?
A: Positive
